From patent publication US10689383B2, “Optionally fused heterocyclyl-substituted derivatives of pyrimidine useful for the treatment of inflammatory, metabolic, oncologic and autoimmune diseases” (NUEVOLUTION A/S, priority 2014, dated 2020) come the findings set out here.

In test [1] the target is T1, yeast Gal4-DNA binding domain fused to the ligand binding domain of human RORγ (Homo sapiens, UniProt P51449).
T1 construct: host or cells: HEK293t
T1 sequence (P51449 269-508 limits assumed): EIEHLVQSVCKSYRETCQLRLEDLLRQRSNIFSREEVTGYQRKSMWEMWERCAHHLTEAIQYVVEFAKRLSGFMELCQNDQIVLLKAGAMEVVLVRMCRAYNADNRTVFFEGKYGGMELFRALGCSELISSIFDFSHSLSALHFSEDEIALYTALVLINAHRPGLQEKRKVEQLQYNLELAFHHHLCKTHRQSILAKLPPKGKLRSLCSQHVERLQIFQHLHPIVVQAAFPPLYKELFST
Briefly: RORγ Reporter Assay (Gal4). It is filed as cell-based. As to conditions: values given as lower bounds of ranges; for Gal4 activity range @ 1 μM (% inhibition): RORγ Reporter Assay (Gal4) at 1 μM; for Gal4 activity range @ 0.1 μM (% inhibition): RORγ Reporter Assay (Gal4) at 0.1 μM. Put shortly:
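HEK293t reporter cells expressing the hybrid, with Gal4-UAS-driven firefly luciferase, treated in triplicate with compound at 1,000 nM and 100 nM (0.1% DMSO) in medium with 10% charcoal-stripped FBS for 24 h at 37 °C. Luminescence read; percent reduction of RLU calculated relative to vehicle.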
In general terms: A reporter such as luciferase makes a cellular process visible.

Test [2] deals with T2, human RORγt (Ligand Binding Domain) (Homo sapiens, UniProt P51449).
T2 construct: purchased Crelux (Planegg, Germany) batch no PC5032-1
T2 sequence (P51449 269-508 limits assumed): T1 sequence (P51449 269-508 limits assumed)
The test is described as follows: Fluorescence Polarization (FP) Assay. The following applies: Fluorescence Polarization (FP) Assay; values given as upper bounds of activity ranges; read-out: FP activity range. Put shortly: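 In vitro FP binding assay monitoring ligand binding within the ligand binding pocket. Probe is a TAMRA-labelled RORγt ligand (MW 910 g/mole); DMSO served as negative control.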

Another test concerns Th17 cells. Briefly: Th17 Assay (IL-17 levels in supernatants by ELISA). Type of test: cell-based. The following applies: Homo sapiens; read-out: Th17 activity range @ 1 μM (% inhibition). How it is done: The activity of the compounds was evaluated using a Fluorescence Polarization (FP) Assay and, in most cases, a Th17 Assay and/or RORγ Reporter assay (also referred to as Gal4 assay). The FP assay is an in vitro assay monitoring binding within the ligand binding pocket. The RORγ and the Th17 assays are both cell-based assays monitoring functional activity of the compound assayed.
Human peripheral blood mononuclear cells (PBMCs) were isolated from buffy coats of healthy human volunteers using the Ficoll paque PLUS kit (GE Healthcare, cat no 17-1440-02), as instructed by the manufacturer. Naive CD4+ T cells were isolated with Naive CD4+ T cell kit, human (Milteny Biotec, cat no 130-094-131). The following modifications were made to the manufacturer's protocol: 1) Incubation with Biotin-Antibody Cocktail and Anti-Biotin MicroBeads was prolonged to 30 minutes, and 2) Cells were washed with 40 mL of Miltenyi buffer. Differentiation of Th17 cells in anti-CD3 (BD Pharmingen, 5 μg/ml) coated 96-well plates (400,000 cells/well, 160 μl RPMI 1640+10% Fetal Bovine Serum) containing 5 μg/ml anti-CD28 (BD Pharmingen), 10 ng/ml IL-2 (R&D Systems), 2.5 ng/ml TGFβ-1 (R&D Systems), 20 ng/ml IL-1β (R&D Systems), 20 ng/ml IL-6 (R&D Systems), 30 ng/ml IL-23 (R&D Systems), 2.5 μg/ml anti-IL-4 (R&D Systems) and 1 μg/ml anti-IFNγ (R&D Systems) and with test compound during the entire differentiation (or vehicle, 0.1% DMSO for control). Test compounds were tested in triplicates, diluted 1000-fold in medium (final DMSO concentration is 0.1%). Incubated for seven days at 37° C., 5% CO2, 95% humidity, and 2-fluoro-4′-[[4-(4-pyridinylmethyl)-1-piperazinyl]methyl]-α,α-bis(trifluoromethyl)-[1,1′-biphenyl]-4-methanol (SR2211 Calbiochem, Cat. No. 557353) was used as positive control. As negative control, cells were differentiated into Th0 using 5 μg/ml anti-CD28 (BD Pharmingen), 10 ng/ml IL-2 (R&D Systems), 2 μg/ml anti-IL4 (R&D Systems) and 2 μg/ml anti-IFNγ (R&D Systems) are negative control. IL-17 levels in supernatants were measured with ELISA (R&D Systems).
Background: An ELISA detects its analyte on a solid surface through an enzyme-linked reagent.

Broadly, the inhibition is the drop in the measured response relative to a control, in per cent. Consider `CC(C)(C)C[C@@H](Nc1ncnc(N2CCC[C@@H]2c2ccc(C(F)(F)F)cc2)c1F)C(N)=O` (single isomer, unassigned) [Example 62, (2R)-2-[[5-fluoro-6-[(2R)-2-[4-(trifluoromethyl)phenyl]pyrrolidin-1-yl]pyrimidin-4-yl]amino]-4,4-dimethyl-pentanamide or (2R)-2-[[5-fluoro-6-[(2S)-2-[4-(trifluoromethyl)phenyl]pyrrolidin-1-yl]pyrimidin-4-yl]amino]-4,4-dimethyl-pentanamide], for which the “Gal4 activity range @ 1 μM (% inhibition)” value in test [1] is reported as above 80 % inhibition. Also, in test [2], the IC50 was below 500 nM. Besides, the inhibition at 1 µM in the test on Th17 cells was above 80%.
With `CC(C)(C)C[C@@H](Nc1nc(C(F)(F)F)nc(N2CCCC2c2ccc(C(F)(F)F)cc2)c1F)C(N)=O` (stereo partly drawn) [Example 13, (2R)-2-[[5-fluoro-2-(trifluoromethyl)-6-[2-[4-(trifluoromethyl)phenyl]pyrrolidin-1-yl]pyrimidin-4-yl]amino]-4,4-dimethyl-pentanamide], the IC50 in test [2] was below 10000 nM. Besides, in the test on Th17 cells, the inhibition at 1 µM is above 20%.
As for `CC1CC(c2ccc(C(F)(F)F)cc2)N(c2ncnc(N[C@H](CC(C)(C)C)C(N)=O)c2F)C1` (stereo partly drawn) [Example 18, (2R)-2-[[5-fluoro-6-[4-methyl-2-[4-(trifluoromethyl)phenyl]pyrrolidin-1-yl]pyrimidin-4-yl]amino]-4,4-dimethyl-pentanamide], in test [2], the IC50 is below 500 nM. For the same compound, in the test with Th17 cells, the inhibition at 1 µM is above 80%.
In the same order, the values of `CC(C)(C)C[C@@H](Nc1ncnc(N2CCCC2c2ccc(C(C)(C)C)cc2)c1F)C(N)=O` (stereo partly drawn) [Example 19, (2R)-2-[[6-[2-(4-tert-butylphenyl)pyrrolidin-1-yl]-5-fluoro-pyrimidin-4-yl]amino]-4,4-dimethyl-pentanamide] are below 500 nM and above 80%.
In the same order, the values of `COc1ccc(C[C@H](CO)Nc2ncnc(N3CCCC3c3ccc(C(F)(F)F)cc3)c2F)cc1` (stereo partly drawn) [Example 29, (2R)-2-[[5-fluoro-6-[2-[4-(trifluoromethyl)phenyl]pyrrolidin-1-yl]pyrimidin-4-yl]amino]-3-(4-methoxyphenyl)propan-1-ol] are below 1000 nM and above 50%.
Consider `CC(C)(C)C[C@H](CO)Nc1ncnc(N2CCCC2c2ccc(C(F)(F)F)cc2)c1F` (stereo partly drawn) [Example 30, (2R)-2-[[5-fluoro-6-[2-[4-(trifluoromethyl)phenyl]pyrrolidin-1-yl]pyrimidin-4-yl]amino]-4,4-dimethyl-pentan-1-ol], for which the “Gal4 activity range @ 1 μM (% inhibition)” value in test [1] is above 80 % inhibition. The IC50 in test [2] was below 500 nM. In addition, the inhibition at 1 µM in the test with Th17 cells is above 50%.
As to `CC(C)C[C@@H](Nc1ncnc(N2CC(C)CC2c2ccc(C(F)(F)F)cc2)c1F)C(=O)O` (stereo partly drawn) [Example 33, (2R)-2-[[5-fluoro-6-[4-methyl-2-[4-(trifluoromethyl)phenyl]pyrrolidin-1-yl]pyrimidin-4-yl]amino]-4-methyl-pentanoic acid], the IC50 in test [2] is below 10000 nM. Also, the inhibition at 1 µM with Th17 cells is above 20%.
In the same order, the values of `CC(C)(C)C[C@@H](Nc1ncnc(N2CCCC2c2ccc(C(F)(F)F)cc2Cl)c1F)C(N)=O` (stereo partly drawn) [Example 35, (2R)-2-[[6-[2-[2-chloro-4-(trifluoromethyl)phenyl]pyrrolidin-1-yl]-5-fluoro-pyrimidin-4-yl]amino]-4,4-dimethyl-pentanamide] are below 500 nM and above 50%.
In the same order, the values of `CC(C)(C)C[C@@H](Nc1ncnc(N2CCCC2c2ccc(C(F)(F)F)cc2Cl)c1F)C(=O)O` (stereo partly drawn) [Example 36, (2R)-2-[[6-[2-[2-chloro-4-(trifluoromethyl)phenyl]pyrrolidin-1-yl]-5-fluoro-pyrimidin-4-yl]amino]-4,4-dimethyl-pentanoic acid] are below 2000 nM and above 50%.
As for `CC1CCN(c2ncnc(N[C@H](CC(C)(C)C)C(N)=O)c2F)C1c1ccc(C(F)(F)F)cc1` (stereo partly drawn) [Example 38, (2R)-2-[[5-fluoro-6-[3-methyl-2-[4-(trifluoromethyl)phenyl]pyrrolidin-1-yl]pyrimidin-4-yl]amino]-4,4-dimethyl-pentanamide], in test [2], the IC50 is below 2000 nM. The inhibition at 1 µM in the test with Th17 cells is above 50%.
Consider `NC(=O)Cc1ccc(CNc2ncnc(N3CCCC3c3ccc(C(F)(F)F)cc3)c2F)cc1` (stereo not shown) [Example 40, 2-[4-[[[5-fluoro-6-[2-[4-(trifluoromethyl)phenyl]pyrrolidin-1-yl]pyrimidin-4-yl]amino]methyl]phenyl]acetamide], for which, in test [2], the IC50 is below 1000 nM. Besides, the inhibition at 1 µM in the test on Th17 cells is above 80%.
On to `COc1ccc(Cn2ccc3c(N4CCCC4c4ccc(C(F)(F)F)cc4)ccnc32)cc1OC` (stereo not shown) [Example 67, 1-[(3,4-dimethoxyphenyl)methyl]-4-[2-[4-(trifluoromethyl)phenyl]pyrrolidin-1-yl]pyrrolo[2,3-b]pyridine], for which the “Gal4 activity range @ 1 μM (% inhibition)” value in test [1] was above 80 % inhibition. Besides, the IC50 in test [2] was below 2000 nM. Further, in the test with Th17 cells, the inhibition at 1 µM is above 80%.
For `O=C(O)Cc1ccc(COc2ncnc(N3CCCC3c3ccc(C(F)(F)F)cc3)c2F)cc1` (stereo not shown) [Example 79, 2-[4-[[5-fluoro-6-[2-[4-(trifluoromethyl)phenyl]pyrrolidin-1-yl]pyrimidin-4-yl]oxymethyl]phenyl]acetic acid], the “Gal4 activity range @ 1 μM (% inhibition)” value in test [1] is listed as above 50 % inhibition. In test [2], the IC50 is below 500 nM. Moreover, the inhibition at 1 µM in the test with Th17 cells is above 50%.
In the case of `O=C(O)Cc1ccc(CNc2ncnc(N3CCC[C@@H]3c3ccc(C(F)(F)F)cc3)c2F)cc1` [Example 81, 2-[4-[[[5-fluoro-6-[(2R)-2-[4-(trifluoromethyl)phenyl]pyrrolidin-1-yl]pyrimidin-4-yl]amino]methyl]phenyl]acetic acid], the “Gal4 activity range @ 1 μM (% inhibition)” value in test [1] is recorded as above 80 % inhibition. The IC50 in test [2] was below 500 nM. Also, the inhibition at 1 µM with Th17 cells is above 80%.
In the same order, the values of `O=C(O)Cc1ccc(Cn2ccc3c(N4CCCC4c4ccc(C(F)(F)F)cc4)ncnc32)cc1` (stereo not shown) [Example 85, 2-[4-[[4-[2-[4-(trifluoromethyl)phenyl]pyrrolidin-1-yl]pyrrolo[2,3-d]pyrimidin-7-yl]methyl]phenyl]acetic acid] are above 80 % inhibition, below 500 nM and above 80%.
For `N#Cc1ccc(CNc2ncnc(N3CCCC3c3ccc(C(F)(F)F)cc3)c2F)cc1` (stereo not shown) [Example 88, 4-[[[5-fluoro-6-[2-[4-(trifluoromethyl)phenyl]pyrrolidin-1-yl]pyrimidin-4-yl]amino]methyl]benzonitrile], in test [2], the IC50 is below 500 nM. Further, the inhibition at 1 µM in the test with Th17 cells is above 80%.
`Cc1ccc(CNc2ncnc(N3CCCC3c3ccc(C(F)(F)F)cc3)c2F)cn1` (stereo not shown) [Example 89, 5-fluoro-N-[(6-methyl-3-pyridyl)methyl]-6-[2-[4-(trifluoromethyl)phenyl]pyrrolidin-1-yl]pyrimidin-4-amine]: in test [1], the “Gal4 activity range @ 0.1 μM (% inhibition)” value is recorded as above 20 % inhibition and the “Gal4 activity range @ 1 μM (% inhibition)” value is listed as above 80 % inhibition. Also, the IC50 in test [2] is below 500 nM. Further, the inhibition at 1 µM in the test on Th17 cells was above 20%.
In the same order, the values of `O=C(O)Cc1ccc(CNc2ncnc(N3CCOCC3c3ccc(OC(F)(F)F)cc3)c2F)cc1` (stereo not shown) [Example 91, 2-[4-[[[5-fluoro-6-[3-[4-(trifluoromethoxy)phenyl]morpholin-4-yl]pyrimidin-4-yl]amino]methyl]phenyl]acetic acid] are above 20 % inhibition, above 80 % inhibition, below 500 nM and above 80%.
